The test system of assay [1] is Human immunodeficiency virus 1. The assay is described as follows: Antiviral activity against HIV-1 group O expressing gp41 N42D, N43K mutant gene. In kind it is functional.
Assay [2] relates to Human immunodeficiency virus 1. The experiment in a line: Antiviral activity against HIV-1 group M. As to conditions: Human immunodeficiency virus 1, group M.
Assay [3] has as its system Human immunodeficiency virus type 1 (BRU ISOLATE). The assay is described as follows: Antiviral activity against Human immunodeficiency virus type 1 (BRU ISOLATE). In kind it is functional.
In assay [4] the test system is Human immunodeficiency virus 1. The experiment in a line: Antiviral activity against HIV-1 group O. As to conditions: Human immunodeficiency virus 1, group O.
For assay [5], the system named is Human immunodeficiency virus 1. The experiment in a line: Antiviral activity against HIV-1 group O expressing gp41 E119Q mutant gene. The class given is functional.
Assay [6] relates to Human immunodeficiency virus 2. The assay is described as follows: Antiviral activity against Human immunodeficiency virus type 2 (ISOLATE ROD). The class given is functional, organism-based.
The test system of assay [7] is Human immunodeficiency virus 1. The experiment in a line: Antiviral activity against HIV-1 group O expressing gp41 T27A mutant gene. In kind it is functional.

Activity calls are given as the source filed them. No cut-off for these calls is given here. Bounds are passed on as bounds.

Broadly, the IC50 is the midpoint of a concentration-inhibition curve.

Consider enfuvirtide, for which the IC50 is 6.4 nM in assay [1]; 6.4 nM in assay [2]; 4 nM in assay [4]; more than 1000 nM in assay [5]; more than 1000 nM in assay [7]. The outcome in assay [3] was Active. In assay [6], the outcome was inactive.

For the origin of these results see ChEMBL document CHEMBL1671702, “Baseline genotypic and phenotypic susceptibilities of HIV-1 group O to enfuvirtide” (Antimicrob Agents Chemother, 2010).
